The results in this text go back to ChEMBL document CHEMBL1137799, “Bisbenzylisoquinoline alkaloids” (J Nat Prod, 1991).

In brackets after ≈: the same amount, converted by molar mass.

The target in data set [1] is Dual specificity calcium/calmodulin-dependent 3',5'-cyclic nucleotide phosphodiesterase 1A (Homo sapiens, UniProt P54750). The data set can be described thus: Inhibition of calmodulin-dependent phosphodiesterase.
Data set [2] is described as follows: Inhibition of calmodulin-stimulated Ca2+/Mg2+ ATPase activity in human erythrocyte membrane. Format: cell membranes.
Data set [3] is described as follows: Drug absorption in digestive tract of Wistar rat at 5 mg/kg, iv and po. The data set is classed as ADME, organism-based. Further details: dose 5 mg/kg, route oral. The conditions noted are these: in vivo, read-out: Drug uptake.
Data set [4] is described as follows: Protein binding in Wistar rat serum at 5 mg/kg, iv and po. Format: ADME, organism-based. The arrangement: dose 5 mg/kg, route oral. The conditions noted are these: read-out: PB (converted).
Data set [5] in a line: Half life in Wistar rat at 5 mg/kg, iv and po. Format: ADME, organism-based. The arrangement: dose 5 mg/kg, route oral. The conditions noted are these: in vivo.
Data set [6] in a line: Half life in Wistar rat testis at 5 mg/kg, iv and po. The arrangement: dose 5 mg/kg, route oral. The data set is classed as ADME, organism-based.
The next data set relates to Plasmodium falciparum. The data set can be described thus: Antimalarial activity against Plasmodium falciparum. The data set is classed as functional, organism-based.
The next data set deals with Homo sapiens. Kind of data set: Increase in N-methyl-curine-induced neuromuscular blocking in patient during endotracheal intubation administered through inhalation. Format: functional, organism-based.
Data set [7] is described as follows: Inhibition of formyl-methionyl-leucyl-phenylalanine induced superoxide generation in PMNC. The data set is classed as functional.
The target in data set [8] is Muscarinic acetylcholine receptor. Kind of data set: Displacement of [3H]QNB from rat brain muscarinic receptor.
Data set [9] in a line: Inhibition of phorbol myristate acetate-induced superoxide anion production in mouse peritoneal exudate cells at 5 ug/ml. The data set is classed as functional.
A short description of data set [10]: Inhibition of phorbol myristate acetate-induced superoxide anion production in mouse peritoneal exudate cells at 50 ug/ml. The data set is classed as functional.
The species entered for a further data set is Mus musculus. Kind of data set: Inhibition of 12-O-tetradecanoylphorbol-13-acetate-induced carcinogenic activity in mouse ear at 2 mg, applied locally. Format: functional.
Data set [11] is described as follows: Toxicity in ip dosed rat. The data set is classed as organism-based. The conditions noted are these: in vivo.

Dual specificity calcium/calmodulin-dependent 3',5'-cyclic nucleotide phosphodiesterase 1A, sequence (P54750 whole entry): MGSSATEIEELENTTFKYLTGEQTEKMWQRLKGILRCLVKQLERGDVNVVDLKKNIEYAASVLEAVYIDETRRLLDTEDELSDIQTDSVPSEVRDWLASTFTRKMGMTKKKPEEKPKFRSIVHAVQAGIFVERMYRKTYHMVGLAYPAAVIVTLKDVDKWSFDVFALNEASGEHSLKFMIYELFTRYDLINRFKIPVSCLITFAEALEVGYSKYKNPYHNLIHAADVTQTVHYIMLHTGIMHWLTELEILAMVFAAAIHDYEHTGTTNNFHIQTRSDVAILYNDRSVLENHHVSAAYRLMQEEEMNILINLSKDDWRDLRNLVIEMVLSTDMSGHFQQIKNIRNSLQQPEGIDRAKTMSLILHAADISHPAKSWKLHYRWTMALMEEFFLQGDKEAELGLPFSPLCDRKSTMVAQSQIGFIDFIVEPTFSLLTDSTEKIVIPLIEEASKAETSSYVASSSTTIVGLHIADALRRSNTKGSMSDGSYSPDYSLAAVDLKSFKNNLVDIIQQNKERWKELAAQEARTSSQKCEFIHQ

As a reminder, the IC50 is the midpoint of a concentration-inhibition curve. As to `CCOCCCCOc1ccc2cc1Oc1ccc(cc1)C[C@H]1c3cc(c(OC)cc3CCN1C)Oc1c(OC)c(OC)cc3c1[C@@H](C2)N(C)CC3`, the IC50 in data set [1] and in data set [2] was 0.35 µM each time.
A word on the half-life: it is the time in which the quantity being followed falls by half. As for `COc1ccc2cc1Oc1ccc(cc1)C[C@H]1c3c(cc4c(c3Oc3cc5c(cc3OC)CCN(C)[C@@H]5C2)O[14CH2]O4)CCN1C`, the Fa in data set [3] amounted to 70%. Besides, in [4], the fraction unbound is 0.26. Also, the half-life in data set [5] was 8 days; in [6], 36 days.
As for `COc1ccc2cc1Oc1ccc(cc1)CC1NCCc3cc(O)c4c(c31)Oc1c(OC)cc3c(c1O4)[C@H](C2)N(C)CC3` (stereo partly specified), the IC50 with Plasmodium falciparum worked out at 1.1 µg/mL (≈ 1.9 µM).
Broadly, the inhibition is the change of the read-out against control, counted positive when it falls. Turning to `FC(F)OC(F)(F)C(F)Cl` (stereo unspecified), the inhibition entry in the data set with Homo sapiens is “Dose-dependent effect”.
In the case of `COc1cc2c3cc1Oc1c(OC)c(OC)cc4c1[C@H](Cc1ccc(cc1)Oc1cc(ccc1O)C[C@H]3N(C)CC2)N(C)CC4` [AROMOLINE], the midpoint of inhibition in the data set on Plasmodium falciparum, the IC50, lay at 0.67 µg/mL (≈ 1.1 µM). In [7], the “inhibition (INH)” value turned out to be 63.1%.
Take `COc1cc2c3cc1Oc1c(OC)c(OC)cc4c1[C@@H](Cc1ccc(O)c(c1)Oc1ccc(cc1)C[C@@H]3N(C)CC2)N(C)CC4` [BERBAMINE]: the IC50 in data set [1] is 22 µM; in data set [2] it was 60 µM. In addition, the Ki in [8] worked out at 1.9 ×10⁻⁷ M. Also, the “inhibition (INH)” value in [7] amounted to 56.4%.
For `COc1cc2c3cc1Oc1c4c(cc5c1[C@H](Cc1ccc(cc1)Oc1cc(ccc1O)C[C@H]3N(C)CC2)N(C)CC5)OCO4` [CEPHARANOLINE], the “inhibition (INH)” value in data set [7] is reported as 56%.
With `COc1ccc2cc1Oc1ccc(cc1)C[C@H]1c3c(cc4c(c3Oc3cc5c(cc3OC)CCN(C)[C@@H]5C2)OCO4)CCN1C` [CEPHARANTHINE], the inhibition at 5 µg/mL in [9] was 34%. The same compound had an inhibition at 50 µg/mL in data set [10] of 85%. The “inhibition (INH)” value in the data set listed under Mus musculus is 78%.
With `COc1cc2c3c4c1Oc1cc5c(cc1O4)[C@H](Cc1ccc(O)c(c1)Oc1ccc(cc1)C[C@@H]3N(C)CC2)N(C)CC5` [COCSULINE], in the data set on Plasmodium falciparum, the IC50 was found to be 15.6 µg/mL (≈ 27.7 µM).
As for `COc1c2cc3c(c1OC)CCN(C)[C@@H]3Cc1ccc(cc1)Oc1cc3c(c(OC)c1OC)CCN(C)[C@@H]3Cc1ccc(cc1)O2` [CYCLEANINE], in data set [7], the “inhibition (INH)” value is 36.2%.
One may read the LD50 as the dose expected to kill half of the subjects tested. As to `COc1cc2c(cc1OC)[C@@H](Cc1ccc(Oc3cc(C[C@@H]4c5cc(OC)c(OC)cc5CCN4C)ccc3O)cc1)N(C)CC2` [DAURICINE], in data set [7], the “inhibition (INH)” value is given as 50.8%. In [11], this compound came in with a 50% lethal dose (LD50) of 205 mg/kg.
`COc1ccc2cc1Oc1ccc(cc1)C[C@H]1c3cc(c(OC)cc3CCN1C)Oc1c(OC)c(OC)cc3c1[C@H](C2)N(C)CC3` [FANCHININ]: the Ki in data set [8] turned out to be 7.3 ×10⁻⁸ M.
Turning to `COc1ccc2cc1Oc1ccc(cc1)C[C@H]1c3cc(c(OC)cc3CCN1C)Oc1c(O)c(OC)cc3c1[C@H](C2)N(C)CC3` [FANGCHINOLINE], the “inhibition (INH)” value in data set [7] was determined as 82.4%.
On the same count and under the same terms, in the case of `COc1ccc2cc1Oc1ccc(cc1)C[C@H]1c3c(cc(OC)c(O)c3Oc3cc4c(cc3OC)CCN(C)[C@@H]4C2)CCN1C` [HOMOAROMOLINE] it was 67%.
Regarding `COc1cc2c3cc1Oc1c(OC)c(OC)cc4c1C(=NCC4)Cc1ccc(cc1)Oc1cc(ccc1O)CC3N(C)CC2` (stereo unspecified) [HYPOEPISTEPHANINE], in data set [7], the “inhibition (INH)” value was determined as 34.1%.
The same measure, in the same setting: in the case of `COc1ccc(C[C@@H]2c3cc(Oc4cc(C[C@@H]5c6cc(O)c(OC)cc6CCN5C)ccc4O)c(OC)cc3CCN2C)cc1` [ISOLIENSININE] it was 59.6%.
The same measure, in the same setting: in the case of `COc1ccc(C[C@@H]2c3cc(Oc4cc(C[C@@H]5c6cc(OC)c(OC)cc6CCN5C)ccc4O)c(OC)cc3CCN2C)cc1` [NEFERINE] it was 63.6%.
In the data set on Plasmodium falciparum, `COc1cc2c3cc1Oc1c(O)c(OC)cc4c1[C@@H](Cc1ccc(O)c(c1)Oc1ccc(cc1)C[C@@H]3N(C)CC2)N(C)CC4` [OBAMEGINE] showed a 50% inhibitory concentration (IC50) of 0.51 µg/mL (≈ 0.858 µM).
On the same count and under the same terms, next, `COc1ccc2cc1Oc1ccc(cc1)C[C@@H]1c3cc(c(OC)cc3CCN1C)Oc1c(OC)c(OC)cc3c1[C@@H](C2)N(C)CC3` [PHAEANTHINE]: 1.43 µg/mL (≈ 2.3 µM); `COc1cc2c3cc1Oc1c(OC)c(OC)cc4c1[C@@H](Cc1ccc(O)c(c1)Oc1ccc(cc1)C[C@H]3N(C)CC2)N(C)CC4` [PYCNAMINE]: 0.15 µg/mL (≈ 0.246 µM).
